In experiment [1] the target is T1, glycine receptor α1 subunit (GlyR α1) (Mus musculus, UniProt Q64018).
T1 construct: gene Glra1; native GlyRs in hypoglossal motoneurons of brain stem slices (Glra1+/+, P18-24); with GlyR β subunit (Glrb)
Kind of experiment: whole-cell patch-clamp dose-response of bath-applied glycine in brain stem slices.

Experiment [2] addresses T2, glycine receptor α1 subunit (GlyR α1 Q177K, shaky) (Mus musculus, UniProt Q64018, Q205K).
T2 construct: gene Glra1; native GlyRs in hypoglossal motoneurons of brain stem slices (Glra1sh/sh, P18-24); with GlyR β subunit (Glrb)
Described as above.

This note sets out measurements from PMC5992992, “Functional Consequences of the Postnatal Switch From Neonatal to Mutant Adult Glycine Receptor α1 Subunits in the Shaky Mouse Model of Startle Disease” (Frontiers in Molecular Neuroscience, 2018).

Take `NCC(=O)O` [glycine]: the results for the EC50 in experiment [1] and in experiment [2] were 277 µM and 384 µM, respectively.

Usually EC50 stands for the concentration at which the effect is half-maximal.
